# Source: article PMC6072100, “Exploring the links between peptoid antibacterial activity and toxicity” (MedChemComm, 2017)
# “And” between values parts separate entries of the source, which are not always exact repeats. Equal values may be shown once. Read-outs that look alike come from different tables or passages of the source. Square brackets hold non-standard residues; d marks the D form. Peptide text beside a SMILES is read from it. Gly(N-(CH2)6NH2) = NCCCCCCNCC(=O)O; Gly(N-2-aminoethyl) = NCCNCC(=O)O; Nspe = C[C@H](NCC(=O)O)c1ccccc1; NhArg = N=C(N)NCCCCNCC(=O)O; NPentylGly = CCCCCNCC(=O)O; Nlys = NCCCCNCC(=O)O
# What was measured:
# Assay type in all cases: cell-based
# [1] = tested on: Escherichia coli K-12 wild-type strain (W3110/ATCC27325); settings: for MIC E. coli: lowest concentration completely inhibiting growth, 37 °C, 16 h, range 2–100 μM
# In short: (§1)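 MIC by microdilution, Iso-sensitest broth, 37 °C/16 h shaking. Inoc.: A650 0.07 → 1:10. Cpd final 2–100 µM, 2-fold series. Absorbance read-out, n=3.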
# [2] = tested on: Pseudomonas aeruginosa PA01 (ATCC 15692)
# In short: as §1
# [3] = tested on: Staphylococcus aureus (3R7089 strain Oxford/ATCC9144)
# In short: as §1
# [4] = tested on: Staphylococcus epidermidis (laboratory strain from clinical isolate); settings: for MIC S. epidermidis: lowest concentration completely inhibiting growth, 37 °C, 16 h, range 2–100 μM
# In short: as §1
# [5] = lowest concentration completely inhibiting growth, 37 °C, 16 h, range 2–100 μM
SMILES,MIC E. coli [1],"MIC P. aeruginosa ([2]; ATCC 15692, 16 h)","MIC P. aeruginosa [2, 5]","MIC S. aureus ([3]; ATCC9144, 16 h)","MIC S. aureus [3, 5]",sensitivity of S. epidermidis (in words) ([4]; compared with the other bacteria tested),MIC S. epidermidis [4],activity against E. coli (in words) [1],activity against P. aeruginosa (in words) [2]
"C[C@@H](c1ccccc1)N(CC(N)=O)C(=O)CN(C(=O)CN(CCCCN)C(=O)CN(C(=O)CN(C(=O)CNCCCCN)[C@@H](C)c1ccccc1)[C@@H](C)c1ccccc1)[C@@H](C)c1ccccc1 [Peptoid 15, (NLysNspeNspe)2] (H-[Nlys][Nspe][Nspe][Nlys][Nspe][Nspe]-NH2)",>100 µM,>100 µM,100 µM,>100 µM,100 µM,some increased sensitivity,25 µM,–,–
"CCCCCNCC(=O)N(CC(=O)N(CC(=O)N(CCCCNC(=N)N)CC(=O)N(CC(=O)N(CC(=O)N(CCCCC)CC(=O)N(CC(=O)N(CC(=O)N(CCCCNC(=N)N)CC(=O)N(CC(=O)N(CC(N)=O)[C@@H](C)c1ccccc1)[C@@H](C)c1ccccc1)[C@@H](C)c1ccccc1)[C@@H](C)c1ccccc1)[C@@H](C)c1ccccc1)[C@@H](C)c1ccccc1)[C@@H](C)c1ccccc1)[C@@H](C)c1ccccc1 [Peptoid 40, [(NamyNspeNspe)(NhArgNspeNspe)]2] (H-[NPentylGly][Nspe][Nspe][NhArg][Nspe][Nspe][NPentylGly][Nspe][Nspe][NhArg][Nspe][Nspe]-NH2)",>100 µM,>100 µM,100 µM,–,3 µM,–,6 µM,not active,not active
"C[C@@H](c1ccccc1)N(CC(N)=O)C(=O)CN(C(=O)CN(CCCCN)C(=O)CN(C(=O)CN(C(=O)CN(CCCCN)C(=O)CN(C(=O)CN(C(=O)CNCCCCN)[C@@H](C)c1ccccc1)[C@@H](C)c1ccccc1)[C@@H](C)c1ccccc1)[C@@H](C)c1ccccc1)[C@@H](C)c1ccccc1 [Peptoid 14, (NLysNspeNspe)3] (H-[Nlys][Nspe][Nspe][Nlys][Nspe][Nspe][Nlys][Nspe][Nspe]-NH2)",13 µM,–,>100 µM,–,2 µM,–,2 µM,–,–
"C[C@@H](c1ccccc1)N(CC(N)=O)C(=O)CN(C(=O)CN(CCCCCCN)C(=O)CN(C(=O)CN(C(=O)CN(CCCCCCN)C(=O)CN(C(=O)CN(C(=O)CN(CCCCCCN)C(=O)CN(C(=O)CN(C(=O)CNCCCCCCN)[C@@H](C)c1ccccc1)[C@@H](C)c1ccccc1)[C@@H](C)c1ccccc1)[C@@H](C)c1ccccc1)[C@@H](C)c1ccccc1)[C@@H](C)c1ccccc1)[C@@H](C)c1ccccc1 [Peptoid 10, (NahNspeNspe)4] (H-[Gly(N-(CH2)6NH2)][Nspe][Nspe][Gly(N-(CH2)6NH2)][Nspe][Nspe][Gly(N-(CH2)6NH2)][Nspe][Nspe][Gly(N-(CH2)6NH2)][Nspe][Nspe]-NH2; N-terminus assumed)",25 µM,–,50 µM,–,2 µM,–,2 µM,–,–
"CCCCCNCC(=O)N(CC(=O)N(CC(=O)N(CCCCN)CC(=O)N(CC(=O)N(CC(=O)N(CCCCN)CC(=O)N(CC(=O)N(CC(=O)N(CCCCN)CC(=O)N(CC(=O)N(CC(N)=O)[C@@H](C)c1ccccc1)[C@@H](C)c1ccccc1)[C@@H](C)c1ccccc1)[C@@H](C)c1ccccc1)[C@@H](C)c1ccccc1)[C@@H](C)c1ccccc1)[C@@H](C)c1ccccc1)[C@@H](C)c1ccccc1 [Peptoid 30, (NamyNspeNspe)[(NLysNspeNspe)]3]",50 µM,–,50 µM,–,2 µM,–,2 µM,–,–
"C[C@@H](c1ccccc1)N(CC(N)=O)C(=O)CN(C(=O)CN(CCN)C(=O)CN(C(=O)CN(C(=O)CN(CCN)C(=O)CN(C(=O)CN(C(=O)CN(CCN)C(=O)CN(C(=O)CN(C(=O)CNCCN)[C@@H](C)c1ccccc1)[C@@H](C)c1ccccc1)[C@@H](C)c1ccccc1)[C@@H](C)c1ccccc1)[C@@H](C)c1ccccc1)[C@@H](C)c1ccccc1)[C@@H](C)c1ccccc1 [Peptoid 16, (NaeNspeNspe)4] (H-[Gly(N-2-aminoethyl)][Nspe][Nspe][Gly(N-2-aminoethyl)][Nspe][Nspe][Gly(N-2-aminoethyl)][Nspe][Nspe][Gly(N-2-aminoethyl)][Nspe][Nspe]-NH2)",100 µM and > 100 µM,–,50 µM,–,2 µM,–,2 µM,negligible activity,–
